For experiment [1], the system named is human acute myeloblastic leukemia MOLM-16. The experiment in a line: Subcutaneous mouse xenograft tumor of MOLM-16. The class given is in vivo. On the procedure:
The experimental animals were NOD-SCID mice (5-6 weeks old, female) purchased from Beijing Huafukang Biotechnology Co., Ltd., with the production license number of SCXK (Jing) 2019-0008 and the animal certification number of 110322211100910838. The housing environment was in a SPF grade. Human acute myelocytic leukemia MOLM-16 cells were purchased from DSMZ. MOLM-16 cells were cultured in an incubator at 37° C. with 5% CO2 in air. Subculturing was performed twice a week, and when the cells were in a logarithmic growth phase, the cells were collected, counted, and inoculated. 1×10^7 MOLM-16 cells were inoculated to each mouse subcutaneously, and when tumors reached the volume of 100-150 mm^3, the mice were divided into groups and injected with drugs intravenously (IV) at the administration volume of 0.1 mL/10 g of body weight.
(§1) The experimental index was to investigate the effects of the drugs on the tumor growth, and the specific index was T/C % or the tumor growth inhibition rate (TGI %, tumor growth inhibition).
(§2) Tumor diameters were measured twice a week with a vernier caliper and tumor volume (V) was calculated according to the following formula: […]
(§3) where a and b represent length and width, respectively.
(§4) T/C (%)=(T−T0)/(C−C0)×100,
(§5) where T and C are the tumor volumes of animals at the end of the experiment in the test group and the negative control group, respectively; T0 and C0 are the tumor volumes of animals at the beginning of the experiment in the test group and the negative control group, respectively.
(§6) If the volume of tumor shrinks compared with its initial volume, i.e., T<T0 […], it is defined as partial regression (PR) of tumor; if the tumor completely disappears, it is defined as complete regression (CR) of tumor.
At the end of the experiment, the animals were sacrificed by CO2 anesthesia and dissected to give the tumors. The tumors were photographed.

Another experiment relates to HL60 cells. The experiment in a line: Promotion of macrophage phagocytosis of tumor cells (flow cytometry). The class given is cell-based. As to conditions: CFSE-labeled HL60 cells, human macrophages. Here is the method:
The ability of the anti-CD47 antibodies to promote the phagocytosis of tumor cells by macrophages having SIRPα on the cell surface was determined based on flow cytometry.
Monocytes were isolated from human peripheral blood mononuclear cells (PBMC, Sailybio, Cat. No. 190056) using a monocyte isolation kit ([…], Cat. No. 19058), plated into a 24-well plate (Greiner bio-one, Cat. No. 662-160) at […] cells per well, and induced under 100 ng/mL stimulating factor M-CSF (R&D Systems, Cat. No. 216-MC-010) for 7 days to form macrophages. 1×10^6 target cells HL60 (Shanghai Institute of Biochemistry and Cell Biology, Chinese Academy of Sciences, Cat. No. TCHu23) were suspended in […] CFSE (BD Biosciences, Cat. No. 565082) fluorescent dye (diluted with a PBS buffer to the desired concentration), incubated in a water bath at 37° C. in the dark for 15 min, and washed with a PBS buffer to prepare CFSE-labeled HL60 cells, which were then incubated with each of 10 μg/mL and 1 μg/mL anti-CD47 antibodies (see Table 3 for chimenic antibodies, and see Table 4 for humanized antibodies) in an incubator at 37° C. with 5% CO2 for 1-2 h. The HL60 cells after the incubation were washed three times with a PBS buffer and added to the macrophages. […] The rate of phagocytosis (%) by the macrophages was determined using a flow cytometer (BD Biosciences, model: C6).
(In general: Flow cytometry measures light scatter and fluorescence of single cells or particles in a stream.)

In another experiment the test system is Raji cells. Put plainly: Hematologic tumor mouse model of lymphoma Raji cells, survival. The class given is in vivo, NOD/SCID mice. The note with it: 10 mg/kg intraperitoneal, 21 consecutive days. On the procedure: A hematologic tumor mouse model was established using hematologic tumor Raji cells. The anti-CD47 antibodies were applied to the model for the evaluation of the pharmacodynamic activity.
A suspension of Raji cells in a PBS buffer was prepared at a concentration of 5×10^6 cells/mL, and was injected into female NOD/SCID mice via the tail vein at 0.1 mL/mouse. […] The administration was performed by intraperitoneal injection in doses of 10 mg/kg for 21 consecutive days. The survival time of the animals was observed.

The subject of experiment [2] is human B-cell lymphoma Daudi. Put plainly: Subcutaneous mouse xenograft tumor of Daudi. The class given is in vivo, NOD-SCID mice. The note with it: IV D0, 3, hz14A9-2.3 1.5 mg/kg, Rituximab 3 mg/kg. Here is the method:
The experimental animals were NOD-SCID mice (5-6 weeks old, male) purchased from Shanghai Lingchang Biotechnology Co., Ltd., with the production license number of SCXK (Hu) 2018-0003 and the animal certification number of 20180003014870. The housing environment was in a SPF grade. Human B-cell lymphoma Daudi cells were purchased from Cell Bank of the Chinese Academy of Sciences. Daudi cells were cultured in an incubator at 37° C. with 5% CO2 in air. Subculturing was performed twice a week, and when the cells were in a logarithmic growth phase, the cells were collected, counted, and inoculated. 1×10^7 Daudi cells were inoculated to each mouse subcutaneously, and when tumors reached the volume of about 100 mm^3, the mice were divided into groups and injected with drugs intravenously (IV) once every 3 days (Q3D) for a total of 2 times at the injection volume of 0.1 mL/10 g of body weight.
as §1, §2, §3, §4, §5, §6
At the end of the experiment (D24), the animals were sacrificed by CO2 anesthesia and dissected to give the tumors. The tumors were photographed.

Where [3] appears, read: Azacitadine 2.5 mg/kg IV QD × 5.

With `Nc1ncn([C@@H]2O[C@H](CO)[C@@H](O)[C@H]2O)c(=O)n1` [Azacitadine, 4-amino-1-β-D-ribofuranosyl-1,3,5-triazin-2(1H)-one], the “T/C(%) D12” value came to 50% in experiment [1] (Azacitadine 1 mg/kg IV QD × 5) and 18% in experiment [1] (setting [3]). For the same compound, the entries for the “Tumor growth inhibition (%) D12” value in experiment [1] (Azacitadine 1 mg/kg IV QD × 5) and in experiment [1] (setting [3]) were 50% and 82%, respectively. The “mean tumor volume D17” value in experiment [1] (azacitadine 1 mg/kg IV QD×5 monotherapy) is reported as 3729.5 ± 436.4 mm^3; in experiment [1] (azacitadine 2.5 mg/kg IV QD×5 monotherapy) it was 1920.7 ± 375.6 mm^3.
In the experiment with HL60 cells (1 μg/mL antibody), “Hu5F9: the positive antibody Hu5F9, comparison anti-CD47 antibody [reference compound]” registered a rate of phagocytosis of 67.5%. In the experiment on HL60 cells (10 μg/mL antibody), this compound displayed a rate of phagocytosis of 72.35%. In addition, in the experiment with Raji cells, the “day on which all the animals in the group died” value amounted to 30 days and the median survival time turned out to be 18.5 days.
Regarding “Rituximab: anti-CD20 monoclonal antibody [reference compound]”, in experiment [2], the “T/C(%) D24” value was 64% and the “Tumor growth inhibition (%) D24” value is 36%. Also, the “Partial regression (number of tumors)” value in experiment [2] (hIgG4 4.5 mg/kg, 6 mice per group (hIgG4 10)) worked out at 0.

The values are drawn from patent US20240269278A1, “ANTI-CD47 ANTIBODY FOR COMBINED TREATMENT OF BLOOD TUMOR” (Nanjing Shunxin Pharmaceuticals Co., Ltd. of Chiatai …, priority 2021, published 2024).
